The text below walks through data of patent publication US4822790A, “1-Sulfo-2-oxoazetidine derivatives and their production” (Takeda Chemical Industries, Ltd., priority 1980, dated 1989).

The target in assay [1] is T1, β-lactamase produced by Enterobacter cloacae PN 1282 (Enterobacter cloacae, UniProt P05364).
T1 construct: cephalothin substrate, micro-iodometric
Kind of assay: Inhibitor concentration required to inhibit the β-lactamase (cephalosporinase) activity by 50%, micro-iodometric method. In kind it is biochemical. Conditions: 0.05M phosphate buffer (pH 7), 30° C., 10 min preincubation, cephalothin 0.1 mM, read-out: I50 (inhibitor concentration required to inhibit the enzyme activity by 50%) (converted). The protocol: "Determination of the inhibitor concentration required to inhibit the enzyme activity by 50%"
The β-lactamase produced by Enterobacter cloacae PN 1282 is used as a typical example of cephalosporinase. The β-lactamase is incubated in 0.05M phosphate buffer (pH 7) with an appropriate dilution of an inhibitor preparation at 30° C. for 10 minutes. Cephalothin is then added in an amount sufficient to produce a final concentration of 0.1 mM, and the enzymatic reaction is allowed to proceed for 10 minutes. The enzyme activity is determined by the micro-iodometric method [Journal of general Microbiology, vol. 33, page 121 (1963)]. Hereinafter, the inhibitor concentration required to inhibit the enzyme activity by 50% is expressed as I50.

For the next assay, the system named is Escherichia coli 0-111. The experiment in a line: Antibacterial test (MIC), Escherichia coli 0-111. In kind it is cell-based. As to conditions: Escherichia coli, 0111; medium TSA; read-out: Minimum inhibitory concentration (MIC). From the text: (§1) The following is media and compounds employed in the antibacterial test.
(§2) TSA=Trypticase soy agar [Baltimore Biologicals (U.S.A.)]
(§3) B-TSA=Blood trypticase soy agar

For another assay, the system named is Klebsiella pneumoniae DT. Kind of assay: Antibacterial test (MIC), Klebsiella pneumoniae DT. In kind it is cell-based. As to conditions: Klebsiella pneumoniae, read-out: Minimum inhibitory concentration (MIC).
Excerpt: as §1, §2, §3

Assay [2] has as its system Proteus vulgaris IFO 3988. The experiment in a line: Antibacterial test (MIC), Proteus vulgaris IFO 3988. It is filed as cell-based. As to conditions: Proteus vulgaris, IFO3988, read-out: Minimum inhibitory concentration (MIC).
Excerpt: as §1, §2, §3

In assay [3] the test system is Pseudomonas morganii IFO 3168. The experiment in a line: Antibacterial test (MIC), Pseudomonas morganii IFO 3168. As to conditions: IFO3168, medium TSA, read-out: Minimum inhibitory concentration (MIC). In kind it is cell-based.
Excerpt: as §1, §2, §3

Assay [4] concerns Staphylococcus aureus FDA209P. The experiment in a line: Antibacterial test (MIC), Staphylococcus aureus FDA209P. In kind it is cell-based.
Excerpt: as §1, §2, §3

For assay [5], the system named is Staphylococcus aureus 308A-1. The experiment in a line: Antibacterial test (MIC), Staphylococcus aureus 308A-1. As to conditions: Staphylococcus aureus, 308A1, read-out: Minimum inhibitory concentration (MIC). It is filed as cell-based.
Excerpt: as §1, §2, §3

Assay [6] concerns Staphylococcus aureus 1840. The experiment in a line: Antibacterial test (MIC), Staphylococcus aureus 1840. It is filed as cell-based. As to conditions: Staphylococcus aureus, 1840, read-out: Minimum inhibitory concentration (MIC).
Excerpt: as §1, §2, §3

In assay [7] the test system is Escherichia coli NIHJ JC-2. The experiment in a line: Antibacterial test (MIC), Escherichia coli NIHJ JC-2. It is filed as cell-based. As to conditions: Escherichia coli, NIHJJC2, read-out: Minimum inhibitory concentration (MIC).
Excerpt: as §1, §2, §3

In another assay the test system is Escherichia coli T-7. The experiment in a line: Antibacterial test (MIC), Escherichia coli T-7. As to conditions: Escherichia coli, T7; medium TSA; read-out: Minimum inhibitory concentration (MIC). It is filed as cell-based.
Excerpt: as §1, §2, §3

Assay [8] deals with Citrobacter freundii IFO 12681. The experiment in a line: Antibacterial test (MIC), Citrobacter freundii IFO 12681. It is filed as cell-based. As to conditions: Citrobacter freundii, IFO12681, read-out: Minimum inhibitory concentration (MIC).
Excerpt: as §1, §2, §3

Assay [9] concerns Enterobacter cloacae IFO 12937. Kind of assay: Antibacterial test (MIC), Enterobacter cloacae IFO 12937. In kind it is cell-based. Conditions: Enterobacter cloacae, IFO12937, read-out: Minimum inhibitory concentration (MIC).
Excerpt: as §1, §2, §3

Assay [10] concerns Serratia marcescens IFO 12648. The experiment in a line: Antibacterial test (MIC), Serratia marcescens IFO 12648. It is filed as cell-based. Conditions: Serratia marcescens, IFO12648, read-out: Minimum inhibitory concentration (MIC).
Excerpt: as §1, §2, §3

The test system of assay [11] is Proteus mirabilis IFO 3849. Kind of assay: Antibacterial test (MIC), Proteus mirabilis IFO 3849. It is filed as cell-based. As to conditions: Proteus mirabilis, IFO3849, read-out: Minimum inhibitory concentration (MIC).
Excerpt: as §1, §2, §3

The subject of assay [12] is Proteus morganii IFO 3168. Kind of assay: Antibacterial test (MIC), Proteus morganii IFO 3168. In kind it is cell-based. As to conditions: Morganella morganii, IFO3168, read-out: Minimum inhibitory concentration (MIC).
Excerpt: as §1, §2, §3

The test system of assay [13] is Pseudomonas aeruginosa IFO 3455. Kind of assay: Antibacterial test (MIC), Pseudomonas aeruginosa IFO 3455. In kind it is cell-based. Conditions: Pseudomonas aeruginosa, IFO3455, read-out: Minimum inhibitory concentration (MIC).
Excerpt: as §1, §2, §3

The subject of assay [14] is Pseudomonas aeruginosa U 31. The experiment in a line: Antibacterial test (MIC), Pseudomonas aeruginosa U 31. It is filed as cell-based. As to conditions: Pseudomonas aeruginosa, U31, read-out: Minimum inhibitory concentration (MIC).
Excerpt: as §1, §2, §3

In assay [15] the test system is Acinetobacter calcoaceticus IFO 13006. The experiment in a line: Antibacterial test (MIC), Acinetobacter calcoaceticus IFO 13006. In kind it is cell-based. Conditions: Acinetobacter calcoaceticus, IFO13006, read-out: Minimum inhibitory concentration (MIC).
Excerpt: as §1, §2, §3

The test system of another assay is Candida albicans TA. Kind of assay: Antibacterial test (MIC), Candida albicans TA. Conditions: Candida albicans, read-out: Minimum inhibitory concentration (MIC). In kind it is cell-based.
Excerpt: as §1, §2, §3

Assay [16] concerns Streptococcus pyogenes E-14. The experiment in a line: Antibacterial test (MIC), Streptococcus pyogenes E-14. It is filed as cell-based. Conditions: Streptococcus pyogenes, E14, read-out: Minimum inhibitory concentration (MIC).
Excerpt: as §1, §2, §3

Assay [17] concerns Streptococcus pyogenes S-8. Kind of assay: Antibacterial test (MIC), Streptococcus pyogenes S-8. As to conditions: Streptococcus pyogenes, S8, read-out: Minimum inhibitory concentration (MIC). It is filed as cell-based.
Excerpt: as §1, §2, §3

Assay [18] has as its system Streptococcus mitis America. The experiment in a line: Antibacterial test (MIC), Streptococcus mitis America. It is filed as cell-based. Conditions: Streptococcus mitis, read-out: Minimum inhibitory concentration (MIC).
Excerpt: as §1, §2, §3

The subject of assay [19] is Streptococcus faecium IFO 3128. Kind of assay: Antibacterial test (MIC), Streptococcus faecium IFO 3128. It is filed as cell-based. As to conditions: Enterococcus faecium, IFO3128, read-out: Minimum inhibitory concentration (MIC).
Excerpt: as §1, §2, §3

Assay [20] concerns Streptococcus pneumoniae Type I. Kind of assay: Antibacterial test (MIC), Streptococcus pneumoniae Type I. In kind it is cell-based. Conditions: Streptococcus pneumoniae, read-out: Minimum inhibitory concentration (MIC).
Excerpt: as §1, §2, §3

The subject of assay [21] is Corynebacterium diphtheriae Toronto. Kind of assay: Antibacterial test (MIC), Corynebacterium diphtheriae Toronto. Conditions: Corynebacterium diphtheriae, read-out: Minimum inhibitory concentration (MIC). In kind it is cell-based.
Excerpt: as §1, §2, §3

The test system of assay [22] is Bordetella bronchiseptica Sagami. The experiment in a line: Antibacterial test (MIC), Bordetella bronchiseptica Sagami. It is filed as cell-based. As to conditions: Bordetella bronchiseptica, read-out: Minimum inhibitory concentration (MIC).
Excerpt: as §1, §2, §3

T1 sequence (P05364 21-381): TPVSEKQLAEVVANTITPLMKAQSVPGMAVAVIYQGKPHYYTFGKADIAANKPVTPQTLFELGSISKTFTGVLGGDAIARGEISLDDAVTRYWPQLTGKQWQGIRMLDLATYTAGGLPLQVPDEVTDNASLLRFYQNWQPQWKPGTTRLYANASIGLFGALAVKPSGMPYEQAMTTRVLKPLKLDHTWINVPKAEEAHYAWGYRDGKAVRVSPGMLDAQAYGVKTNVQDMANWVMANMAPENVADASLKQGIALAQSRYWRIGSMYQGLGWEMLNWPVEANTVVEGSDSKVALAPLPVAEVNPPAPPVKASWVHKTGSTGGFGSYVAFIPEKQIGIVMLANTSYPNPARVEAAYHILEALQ

Turning to `CON=C(C(=O)N[C@@H]1C(=O)N(S(=O)(=O)O)[C@@H]1SC)c1csc(N)n1`, the IC50 in [1] is 759 nM.
Take `CS[C@@H]1[C@H](NC(=O)c2c(-c3c(Cl)cccc3Cl)noc2C)C(=O)N1S(=O)(=O)O`: the IC50 in assay [1] was 96.5 nM.
`CCN1CCN(C(=O)N[C@@H](C(=O)NC2(OC)CN(S(=O)(=O)O)C2=O)c2ccccc2)C(=O)C1=O` (single isomer, unassigned) [Compound C, Sodium 3-[D(-)-N-(4-ethyl-2,3-dioxo-1-piperazinocarbonyl)phenylglycinamido]-3-methoxy-2-oxoazetidine-1-sulfonate]: the MIC with Escherichia coli 0-111 was 12.5 µg/mL; in the assay with Klebsiella pneumoniae DT, 12.5 µg/mL; in [2], 12.5 µg/mL; in assay [3], > 100 µg/mL.
As for `CON=C(C(=O)N[C@@H]1C(=O)N(S(=O)(=O)O)[C@H]1Sc1ccccc1)c1csc(N)n1`, the IC50 in assay [1] is 59 nM.
`CS[C@@H]1[C@H](NC(=O)C(=NOC(C)(C)C(=O)O)c2csc(N)n2)C(=O)N1S(=O)(=O)O`: the IC50 in assay [1] is 406 nM.
As to `CON=C(C(=O)NC1CN(S(=O)(=O)[O-])C1=O)c1csc(N)n1.[Na+]` (stereo not drawn) [Compound A, Sodium 3-[2-(2-amino-4-thiazolyl)-2-methoxyiminoacetamido]-2-oxoazetidine-1-sulfonate], the MIC in assay [4] (Staphylococcus aureus, FDA209P, read-out: Minimum inhibitory concentration (MIC)) was 50 µg/mL; in [5], 25 µg/mL; in assay [6], 100 µg/mL; in [7] it was 0.78 µg/mL; in the assay with Escherichia coli 0-111 it was 0.39 µg/mL; in the assay on Escherichia coli T-7, > 100 µg/mL. Moreover, the MIC in assay [8] is 1.56 µg/mL; with Klebsiella pneumoniae DT, 0.78 µg/mL; in assay [9] it was > 100 µg/mL; in assay [10], 12.5 µg/mL; in [2] it was 1.56 µg/mL; in [11], 6.25 µg/mL. The MIC in assay [12] is 25 µg/mL; in assay [13], 6.25 µg/mL; in [14] it was > 100 µg/mL; in [15], 6.25 µg/mL; in the assay with Candida albicans TA it was > 100 µg/mL; in assay [16], 3.13 µg/mL. The MIC in assay [17] was 3.13 µg/mL; in [18], 25 µg/mL; in assay [19] it was > 100 µg/mL; in [20], 12.5 µg/mL; in assay [21] it was 1.56 µg/mL; in [22], 100 µg/mL. For the same compound, the “Minimum inhibitory concentration (MIC)” value in assay [4] (medium B-TSA) stood at 50 µg/mL.
